Experimental data reported in ChEMBL document CHEMBL1144888, “Synthesis, structure-activity relationship, and evaluation of SR141716 analogues: development of central cannabinoid receptor ligands with lower lipophilicity” (J Med Chem, 2003).

system: not listed separately; assay: Partition coefficient (logD7.4); conditions: octanol/water, pH 7.4

Compound	logD
O=C(NN1CCCCC1)c1cc(-c2ccc(Cl)cc2)n(-c2ccc(Cl)cc2Cl)n1	5.14

target: Cannabinoid receptor 1 (Rattus norvegicus, UniProt P20272); conditions: not given
Sequence (P20272 whole entry): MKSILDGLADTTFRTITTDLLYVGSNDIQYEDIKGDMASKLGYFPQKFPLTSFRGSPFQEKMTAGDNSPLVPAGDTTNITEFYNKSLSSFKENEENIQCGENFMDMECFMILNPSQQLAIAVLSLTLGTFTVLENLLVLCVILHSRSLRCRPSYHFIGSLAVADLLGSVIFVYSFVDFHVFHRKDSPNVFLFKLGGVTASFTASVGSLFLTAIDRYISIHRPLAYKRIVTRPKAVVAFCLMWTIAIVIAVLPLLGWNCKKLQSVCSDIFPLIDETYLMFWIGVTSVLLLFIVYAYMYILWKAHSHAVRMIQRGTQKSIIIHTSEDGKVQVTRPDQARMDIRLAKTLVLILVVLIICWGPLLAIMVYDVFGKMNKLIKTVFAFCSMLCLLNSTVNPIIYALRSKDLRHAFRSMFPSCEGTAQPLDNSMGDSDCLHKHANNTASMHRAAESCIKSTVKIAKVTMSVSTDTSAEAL

Compound	Ki [nM]
COc1ccc(-c2c(Br)c(C(=O)NN3CCCCC3)nn2-c2ccccc2Cl)cc1	6.2
Cc1c(C(=O)NN2CCCCC2)nn(-c2ccc(Cl)cc2Cl)c1-c1ccc(O)cc1	104
COc1ccc(-c2c(F)c(C(=O)NN3CCCCC3)nn2-c2ccccc2Cl)cc1	18.2
O=C(NN1CCCCC1)c1cc(-c2ccc(Cl)cc2)n(-c2ccc(Cl)cc2Cl)n1	9
COc1ccc(-c2c(Br)c(C(=O)NN3CCCCCC3)nn2-c2ccc(Cl)cc2Cl)cc1	5.2
Cc1c(C(=O)NN2CCCCC2)nn(-c2ccc(Cl)cc2Cl)c1-c1ccc(OC2CCCN2C(=O)OC(C)(C)C)cc1 (centres undefined)	390
COc1ccc(-c2c(C)c(C(=O)NN3CCCCC3)nn2-c2ccccc2OC)cc1	440
Cc1c(C(=O)NN2CCCCC2)nn(-c2ccc(Cl)cc2Cl)c1-c1ccc2c(c1)OCO2	7.1
O=C(NN1CCCCC1)c1nn(-c2ccc(Cl)cc2Cl)c(-c2ccc(Cl)cc2)c1Br	1.4
COc1ccc(-c2c(C)c(C(=O)NN3CCCCC3)nn2-c2ccccc2F)cc1	37.8
COc1ccc(-c2c(C)c(C(=O)NN3CCCCC3)nn2-c2ccccc2Cl)cc1	8
COc1ccc(-c2c(C)c(C(=O)NN3CCCCCC3)nn2-c2ccc(Cl)cc2Cl)cc1	7
Cc1c(C(=O)NN2CCOCC2)nn(-c2ccc(Cl)cc2Cl)c1-c1ccc(I)cc1	4.5
